# Laboratory results from patent publication US12246022B2, “Compositions and methods for treating, preventing or reversing age associated inflammation and disorders” (BROWN UNIVERSITY, priority 2019, dated 2025).
# Where two headings read alike, the source gives them in different places.
# Assays:
# human LINE-1 [1] = experiment: Human LINE-1 retrotransposition assay, related experiments with islatravir (pYX017, HeLa cells, Tables 12 and 13); format: cell-based; settings: for IC50: Homo sapiens
# Experimental: In related experiments, islatravir and other compounds were tested for inhibition of retrotransposition activity of human LINE-1 in HeLa cells according to the following procedure.
# HeLa cervical cancer cells were cultivated at 37° C. in a humidified 5% CO2 incubator in Dulbecco's Modified Eagle's Medium (DMEM)—high glucose, with 4500 mg/L glucose, L-glutamine, sodium pyruvate and sodium bicarbonate (Sigma), supplemented with 10% of heat inactivated fetal bovine serum (Thermo Fisher).
# Assays were performed using reporter plasmid pYX017 as described (Xie, et al., 2011) with several modifications. The reporter assay was performed in 96-well white optical bottom plates. HeLa cells were seeded in wells 24 h prior to transfection and compound treatment so that cells were approximately 30% confluent on the day of transfection. Different cell plating densities were tested and a density of 2×10^3 cells was determined to be optimal.
# Compounds were resuspended in DMSO. Serial dilutions (1:3) were prepared in DMSO. Medium containing different concentrations of the compounds were prepared by adding 2 μl of the compound dilution to 1 ml of the culture medium. The final concentration of DMSO in the medium was 0.2%.
# FuGENE® HD transfection reagent (Promega, E2311, Lot 382574 and Lot 397842) was used to transfect the plasmids into the cells. The transfection reagent: DNA mixture was prepared in OpiMEM (Thermo Fisher) according to manufacturer's instructions. Different ratios of transfection reagent to DNA were tested and a ratio of 3:1 was determined to be optimal. Culture medium was removed from the cells and discarded. The transfection reagent: DNA mixture (5 μl) was mixed with the compound containing medium (100 μl/well) and this was added onto the cells of each well. Cells were incubated at 37° C./5% CO2 for different incubation time. A 72 h incubation time was determined to be optimal.
# Luciferase reporter activity was quantified with the Dual-Luciferase® Reporter Assay System (Promega) according to manufacturer's instructions for multiwell plates except that cells were lysed directly on the multiwell plate with 30 μl of the passive lysis buffer (PLB) for 20 min at room temperature, with gentle shaking to ensure complete cell lysis.
# Firefly and Renilla luciferase signals were measured using a SpectraMax i3x Multi-Mode Microplate Reader. Integration times of 100 ms and 10 ms were used to measure the Firefly and Renilla signals respectively. Relative L1 activity is calculated as Firefly/Renilla *1000 or Firefly/Renilla *10,000. Dose response inhibition data were fit to a four parameter logistic equation using non-linear regression (using Graphpad Prism 8), to determine IC50 values for each inhibitor.
# [2] = cited from earlier work
# [3] = human plasma PK, oral dose 0.5-30 mg; cited from earlier work
# [4] = Table 13 Comparative Studies; cited from earlier work
# human LINE-1 [5] = experiment: Islatravir Inhibitory Quotient (IQ) estimate for human LINE-1 in PBMC and brain; settings: for Human LINE-1 IQ C168 hr, PBMC, single dose / Human LINE-1 IQ Cavg (ss), PBMC, q.d.: EFdA-TP EC50 = 316 nM; for Human LINE-1 IQ C168 hr, Brain, single dose / Human LINE-1 IQ Cavg (ss), Brain, q.d.: assume Br./plasma = 0.25
# HIV WT = settings: Grobler et al. 2019; read-out: HIV WT IC50; cited from earlier work
# IFN-I response = IFN-I response in senescent and 3X human fibroblasts (RT-qPCR, ELISA, immunoblotting); format: cell-based; settings: LF1 and IMR90, 5 μM
# Excerpt: (§1) To obtain replicatively senescent (RS) cells, LF1 cultures were serially propagated until proliferation ceased. At each passage, after reaching 80% confluence cells were trypsinized and diluted 1:4. […] In early passage cultures, the time between passages is constant at approximately 3 days. […] At this point, after reaching 80% confluence, the cells were replated at 1:2 dilution, and this time was designated as the last passage (point A in FIG. 2A). […] Under this experimental regimen, the majority of the cells in the culture enter senescence within a 3-4 weeks window centered roughly around the time of last passage (grey bar in FIG. 2A). At point B (4 weeks), the cultures were trypsinized and replated as described^60 to eliminate a small fraction of persisting contact-inhibited cells. Cultures were again replated at point C (8 weeks).
# Oncogene-induced senescence (OIS) was elicited by infecting proliferating LF1 cells with pLenti CMV RasV12 Neo (Addgene plasmid #22259). Generation of lentiviral particles and the infection procedure are described below. At the end of the infection, cells were reseeded at 15-20% confluency and selected with G418 (250 μg/ml) maintained continuously until the end of the experiment Medium was changed every 3 days until the cultures were harvested at the indicated time points. Stress-induced premature senescence (SIPS) was elicited by […] irradiation with 20 Gy given at a rate of 87 cGy/min in one fraction using a cesium-137 gamma source (Nordion Gammacell 40). Cells were 15-20% confluent at the time of irradiation. Medium was changed immediately after irradiation, and at 3-day intervals thereafter. […]
# The ABI ViiA 7 instrument (Applied Biosystems) was used for all experiments. qPCR of DNA was performed using the TaqMan system (Applied Biosystems) as described by Coufal et al. (2009).^64 […] of purified genomic DNA was used with the indicated primers (see Table 1). […] Effectiveness of the DNase digestion was assessed using controls that omitted the RT enzyme. […]
# L1HS sequences = experiment: L1 sequence abundance (copy number) by TaqMan qPCR in senescent fibroblasts; format: cell-based, human; settings: LF1, IMR90, W138 fibroblasts, 5 μM in medium, 4 months in senescence
# Experimental: The ABI ViiA 7 instrument (Applied Biosystems) was used for all experiments. qPCR of DNA was performed using the TaqMan system (Applied Biosystems) as described by Coufal et al. (2009).^64 […] of purified genomic DNA was used with the indicated primers (see Table 1). Reverse transcription qPCR (RT-qPCR) of RNA was performed using the SYBR Green system (Applied Biosystems). Polyadenylated RNA was used in all experiments assessing transcription of L1 elements, and total RNA was used for all other genes. Total RNA was harvested using the Trizol reagent (Invitrogen). Poly(A) RNA was isolated from total RNA using the NEBNext Poly(A) mRNA Magnetic Isolation Module (New England Biolabs). […] Effectiveness of the DNase digestion was assessed using controls that omitted the RT enzyme.
# Primer sets 1 to 5 (Table 1, amplicons A to E in FIG. 1B) to human L1 were designed to preferentially amplify elements of the human-specific L1 HS and evolutionarily recent primate-specific L1 PA(2-6) subfamilies, as follows. […] Sequences of primers corresponding to a consensus of all the murine IFN alpha family genes, as well as to the IFNB1 gene, were obtained from the publication by Gautier et al.^71 For quantifying relative L1 genomic copy number (human cells), the TaqMan multiplex method developed by Coufal et al. (2009)^72 was used. […]
# SASP response = experiment: Senescence entry and SASP gene expression in human fibroblasts (RT-qPCR); format: cell-based; settings: LF1, 5 μM
# Excerpt: as §1
# The ABI ViiA 7 instrument (Applied Biosystems) was used for all experiments. qPCR of DNA was performed using the TaqMan system (Applied Biosystems) as described by Coufal et al. (2009).^64 […] of purified genomic DNA was used with the indicated primers (see Table 1). Reverse transcription qPCR (RT-qPCR) of RNA was performed using the SYBR Green system (Applied Biosystems). […] Effectiveness of the DNase digestion was assessed using controls that omitted the RT enzyme.
# [6] = daily dose of 2 mg, steady state
smiles,measurement,setting,value
"C#C[C@]1(CO)O[C@@H](n2cnc3c(N)nc(F)nc32)C[C@@H]1O [Islatravir, 2′-deoxy-4′-ethynyl-2-fluoroadenosine]",human LINE-1 inhibitor activity compared to the other reverse transcriptase inhibitory drugs tested,human LINE-1 [1]; HeLa cells,unexpectedly better human LINE-1 inhibitor activity
same,IC50,"human LINE-1 [1]; HeLa, Table 13 Comparative Studies, read-out: Human Line-1 IC50",5 nM
same,IC50,"human LINE-1 [1]; HeLa, see Table 12, read-out: in vitro IC50 for human LINE-1 in cell-based assay",1.29 nM
same,IC50,"human LINE-1 [1]; HeLa cells, pYX017, 72 h, n = 3, read-out: Human LINE-1 IC50, Average",1.29 nM
same,IC50,"human LINE-1 [1]; HeLa cells, pYX017, 72 h, read-out: Human LINE-1 IC50, Exp. 3",1.4 nM
same,IC50,"human LINE-1 [1]; HeLa cells, pYX017, 72 h, read-out: Human LINE-1 IC50, Exp.2",1.18 nM
same,Plasma-Brain Kapp,[2]; non-human primate,0.25
same,blood brain barrier penetration,"[2]; single oral doses, Rhesus macaque",penetrated the blood brain barrier (BBB)
same,oral clearance,[3],31 to 45 L/h
same,huCSF/Plasma,[4],0.25
same,"Human LINE-1 IQ C168 hr, PBMC, single dose",human LINE-1 [5]; Dose 0.5 mg,1.84
same,"Human LINE-1 IQ Cavg (ss), PBMC, q.d.",human LINE-1 [5]; Dose 0.5 mg,23.41
same,"Human LINE-1 IQ C168 hr, Brain, single dose",human LINE-1 [5]; Dose 0.5 mg,0.46
same,"Human LINE-1 IQ Cavg (ss), Brain, q.d.",human LINE-1 [5]; Dose 0.5 mg,5.85
same,"Human LINE-1 IQ C168 hr, PBMC, single dose",human LINE-1 [5]; Dose 1 mg,2.61
same,"Human LINE-1 IQ Cavg (ss), PBMC, q.d.",human LINE-1 [5]; Dose 1 mg,39.79
same,"Human LINE-1 IQ C168 hr, Brain, single dose",human LINE-1 [5]; Dose 1 mg,0.66
same,"Human LINE-1 IQ Cavg (ss), Brain, q.d.",human LINE-1 [5]; Dose 1 mg,9.95
same,"Human LINE-1 IQ C168 hr, PBMC, single dose",human LINE-1 [5]; Dose 2 mg,3.00
same,"Human LINE-1 IQ Cavg (ss), PBMC, q.d.",human LINE-1 [5]; Dose 2 mg,50.54
same,"Human LINE-1 IQ C168 hr, Brain, single dose",human LINE-1 [5]; Dose 2 mg,0.75
same,"Human LINE-1 IQ Cavg (ss), Brain, q.d.",human LINE-1 [5]; Dose 2 mg,12.64
same,"Human LINE-1 IQ C168 hr, PBMC, single dose",human LINE-1 [5]; Dose 10 mg,15.64
same,"Human LINE-1 IQ Cavg (ss), PBMC, q.d.",human LINE-1 [5]; Dose 10 mg,295.15
same,"Human LINE-1 IQ C168 hr, Brain, single dose",human LINE-1 [5]; Dose 10 mg,3.92
same,"Human LINE-1 IQ Cavg (ss), Brain, q.d.",human LINE-1 [5]; Dose 10 mg,73.79
same,"Human LINE-1 IQ C168 hr, PBMC, single dose",human LINE-1 [5]; Dose 30 mg,76.88
same,"Human LINE-1 IQ Cavg (ss), PBMC, q.d.",human LINE-1 [5]; Dose 30 mg,915.31
same,"Human LINE-1 IQ C168 hr, Brain, single dose",human LINE-1 [5]; Dose 30 mg,19.22
same,"Human LINE-1 IQ Cavg (ss), Brain, q.d.",human LINE-1 [5]; Dose 30 mg,228.83
same,IQ for human LINE-1 in PBMCs,human LINE-1 [5]; [6],51
same,IQ for human LINE-1 in brain,human LINE-1 [5]; [6],13
same,IC50,HIV WT,0.2 nM
Nc1ncnc2c1ncn2CCOCP(=O)(O)O [Adefovir],"interferon gene expression (IFN-α, IFN-β1) in senescent cells",IFN-I response,significantly reduced
same,senescence-induced increase of L1 copy number,L1HS sequences,significantly prevented this increase
same,"SASP gene expression (IL-6, MMP3) in senescent cells",SASP response,significantly decreased
